According to patent US9463252B2, “Auristatin drug linker conjugates” (priority 2008, dated 2016):

Assays:
L428 = test: Cytotoxicity of Auristatin-Peptide-h1F6 conjugates, resazurin assay; type: cell-based
Text: (§1) The conjugates contain approximately 4 drugs per antibody.

Caki-1 = test: as above; type: cell-based
Text: as §1

Caki-2 = test: as above; type: cell-based
Procedure: as §1
Following the procedure described as Examples 57 and 58, Auristatin-Peptide-h1F6 conjugates were evaluated on CD70^+ cell, such as 786-O, Caki-1, Caki-2, and L428. Conjugates contain approximately 4 drugs per antibody.

HCT-116 (CD70−) = test: Cytotoxicity of Auristatin-Peptide-h1F6 conjugates, CD70- control cell line; type: cell-based; conditions: Table 5, ~4 drugs/Ab
Text: as §1

786-O = test: Cytotoxicity of Auristatin-Peptide-h1F6 conjugates, resazurin assay; type: cell-based, human
Text: as §1

UMRC-3 = test: as above; type: cell-based
Text: as §1

LP-1 = test: as above; type: cell-based, human
Text: as §1

[1] = Table 5, h1F6 conjugates, ~4 drugs/Ab
[2] = Table 8, h1F6 conjugates, D vs L amino acid in second linker position
[3] = Table 9, h1F6-Drug(4) conjugates, mono- vs dipeptide linker
[4] = Table 10, h1F6-Drug(4) conjugates, aryl or alkyl maleimides
[5] = Table 7, h1F6 conjugates, AF vs MMAF

Row | Substance | IC50 L428 (L428; [1]) | IC50 Caki-1 (Caki-1; [1]) | IC50 Caki-2 (Caki-2; [1]) | IC50 HCT-116 (CD70−) (HCT-116 (CD70−)) | IC50 786-O (786-O; [1]) | other results
1 | AF-Arginine-(D)Lysine-diaminoethane-propionyl maleimide [AF-Arg-(D)Lys] | 0.047 µg/mL | 0.01 µg/mL | 0.008 µg/mL | >1 µg/mL | 0.008 µg/mL | –
2 | AF-Asparagine-(D)Aspartic Acid-diaminoethane-propionyl maleimide [AF-Asn-(D)Asp] | 0.014 µg/mL | 0.007 µg/mL | 0.071 µg/mL | >1 µg/mL | 0.007 µg/mL | –
3 | AF-Asparagine-(D)Lysine-(D)Lysine-diaminoethane-propionyl maleimide [AF-Asn-(D)Lys-(D)Lys] | 0.022 µg/mL | 0.01 µg/mL | 0.03 µg/mL | >1 µg/mL | 0.009 µg/mL | –
4 | AF-Asparagine-(L)Lysine-diaminoethane-propionyl maleimide [AF-Asn-(L)Lys] | – | – | – | – | – | IC50 UMRC-3 (UMRC-3; [2]): 0.026 µg/mL; IC50 L-428 (L428; [2]): 0.008 µg/mL; IC50 Caki-1 (Caki-1; [2]): 0.008 µg/mL; IC50 LP-1 (LP-1; [2]): 0.501 µg/mL; IC50 786-O (786-O; [2]): 0.009 µg/mL
5 | AF-Asparagine-Proline-diaminoethane-propionyl maleimide [AF-Asn-Pro] | 0.023 µg/mL | 0.012 µg/mL | 0.032 µg/mL | >1 µg/mL | 0.011 µg/mL | –
6 | AF-Citrulline-(D)Lysine-diaminoethane-propionyl maleimide [AF-Cit-(D)Lys] | 0.047 µg/mL | 0.011 µg/mL | 0.016 µg/mL | >1 µg/mL | 0.01 µg/mL | –
7 | AF-Glutamine-(D)Lysine-diaminoethane-propionyl maleimide [AF-Gln-(D)Lys] | 0.209 µg/mL | 0.011 µg/mL | 0.014 µg/mL | >1 µg/mL | 0.012 µg/mL | –
8 | AF-Homo-β-Phenylalanine-(D)Aspartic Acid-diaminoethane-propionyl maleimide [AF-hPhe-(D)Asp] | 0.029 µg/mL | >1 µg/mL | >1 µg/mL | >1 µg/mL | 0.01 µg/mL | –
9 | AF-Lysine-(D)Lysine-diaminoethane-propionyl maleimide [AF-Lys-(D)Lys] | 0.037 µg/mL | 0.008 µg/mL | 0.009 µg/mL | >1 µg/mL | 0.009 µg/mL | –
10 | AF-Methionine-(D)Aspartic Acid-diaminoethane-propionyl maleimide [AF-Met-(D)Asp] | 0.011 µg/mL | 0.01 µg/mL | 0.035 µg/mL | >1 µg/mL | 0.008 µg/mL | –
11 | AF-Methionine-(D)Lysine-(D)Lysine-diaminoethane-propionyl maleimide [AF-Met-(D)Lys-(D)Lys] | >1 µg/mL | 0.012 µg/mL | 0.025 µg/mL | >1 µg/mL | 0.008 µg/mL | –
12 | AF-Methionine-(D)Methionine-diaminoethane-propionyl maleimide [AF-Met-(D)Met] | 0.004 µg/mL | 0.005 µg/mL | 0.013 µg/mL | >1 µg/mL | 0.004 µg/mL | –
13 | AF-Methionine-(D)Valine-diaminoethane-propionyl maleimide [AF-Met-(D)Val] | 0.008 µg/mL | 0.006 µg/mL | 0.032 µg/mL | >1 µg/mL | 0.005 µg/mL | –
14 | AF-Methionine-(L)Lysine-diaminoethane-propionyl maleimide [AF-Met-(L)Lys] | – | – | – | – | – | IC50 UMRC-3 (UMRC-3; [2]): 0.022 µg/mL; IC50 L-428 (L428; [2]): 0.003 µg/mL; IC50 Caki-1 (Caki-1; [2]): 0.004 µg/mL; IC50 LP-1 (LP-1; [2]): 0.095 µg/mL; IC50 786-O (786-O; [2]): 0.007 µg/mL
15 | AF-Methionine-Proline-diaminoethane-propionyl maleimide [AF-Met-Pro] | 0.008 µg/mL | 0.015 µg/mL | 0.025 µg/mL | >1 µg/mL | 0.008 µg/mL | –
16 | AF-Methionine-diaminoethane-propionyl maleimide | – | – | – | – | – | IC50 UMRC-3 (UMRC-3; [3]): 0.017 µg/mL; IC50 L-428 (L428; [3]): 0.003 µg/mL; IC50 Caki-1 (Caki-1; [3]): 0.006 µg/mL; IC50 LP-1 (LP-1; [3]): 0.11 µg/mL; IC50 786-O (786-O; [3]): 0.008 µg/mL
17 | AF-Tyrosine-(D)Lysine-diaminoethane-propionyl maleimide [AF-Tyr-(D)Lys] | 0.01 µg/mL | 0.011 µg/mL | 0.012 µg/mL | >1 µg/mL | 0.009 µg/mL | –
18 | AM-Asparagine-(D)Lysine-diaminoethane-benzoyl maleimide [AM-Asn-(D)Lys-aryl maleimide] | – | – | – | – | – | IC50 L428 (L428; [4]): 0.023 µg/mL; IC50 Caki-1 (Caki-1; [4]): 0.01 µg/mL; IC50 Caki-2 (Caki-2; [4]): 0.017 µg/mL; IC50 786-O (786-O; [4]): 0.016 µg/mL
19 | AM-Asparagine-diaminoethane-propionyl maleimide [AM-Asn] | 0.032 µg/mL | 0.031 µg/mL | 0.063 µg/mL | >1 µg/mL | 0.03 µg/mL | –
20 | AM-Methionine-(D)Lysine-diaminoethane-propionyl maleimide [AM-Met-(D)Lys] | 1 µg/mL | 0.039 µg/mL | 0.251 µg/mL | >1 µg/mL | 0.056 µg/mL | –
21 | AM-Tyrosine-(D)Aspartic Acid-diaminoethane-propionyl maleimide [AM-Tyr-(D)Asp] | 0.03 µg/mL | 0.023 µg/mL | 0.071 µg/mL | >1 µg/mL | 0.032 µg/mL | –
22 | AW-Asparagine-(D)Lysine-diaminoethane-propionyl maleimide [AW-Asn-(D)Lys] | 0.019 µg/mL | 0.015 µg/mL | 0.026 µg/mL | >1 µg/mL | 0.016 µg/mL | –
23 | AW-Asparagine-diaminoethane-propionyl maleimide [AW-Asn] | 0.022 µg/mL | 0.015 µg/mL | 0.03 µg/mL | >1 µg/mL | 0.018 µg/mL | –
24 | AW-Methionine-(D)Lysine-diaminoethane-benzoyl maleimide [AW-Met-(D)Lys-aryl-maleimide] | – | – | – | – | – | IC50 L428 (L428; [4]): >1 µg/mL; IC50 Caki-1 (Caki-1; [4]): 0.015 µg/mL; IC50 Caki-2 (Caki-2; [4]): 0.012 µg/mL; IC50 786-O (786-O; [4]): 0.012 µg/mL
25 | AW-Tyrosine-(D)Aspartic acid-diaminoethane-propionyl maleimide [AW-Tyr-(D)Asp] | 0.021 µg/mL | 0.016 µg/mL | 0.033 µg/mL | >1 µg/mL | 0.018 µg/mL | –
26 | MMAF-Methionine-(D)Lysine-diaminoethane-propionyl maleimide [MMAF-Met-(D)Lys] | – | – | – | – | – | IC50 UMRC-3 (UMRC-3; [5]): 0.1 µg/mL; IC50 L-428 (L428; [5]): 0.123 µg/mL; IC50 Caki-1 (Caki-1; [5]): 0.008 µg/mL; IC50 LP-1 (LP-1; [5]): >1 µg/mL; IC50 786-O (786-O; [5]): 0.01 µg/mL
